The text below walks through data of US20260274866A1, “PYRIDO[4,3-D]PYRIMIDINE DERIVATIVES AS MUTANT KRAS G12C INHIBITORS FOR THE TREATMENT OF CANCER” (Frontier Medicines Corporation, priority 2023, published 2026).

This assay has as its target T1, KRAS G12C (GMPPNP-loaded) and cRAF (Ras-binding domain) interaction (Homo sapiens, UniProt P01116, C118S/C51S/C80L/G12C).
T1 construct: truncated version comprising amino acids 1-169
Put plainly: AlphaScreen inhibition of KRAS G12C and cRAF binding. The assay is classed as biochemical. To be noted: KRAS G12C preloaded with GTP analogue GMPPNP, 2 hours preincubation. On the procedure:
The AlphaScreen technology was used to determine IC50s for compound inhibition of KRAS G12C (present as the Cys-light (C51S, C80L and C118S), truncated version comprising amino acids 1-169) and cRAF interaction. Compounds were diluted in 100% DMSO and each compound concentration was spotted at 200 nl/well onto low volume, white 384 well plates. The KRAS G12C contained a biotin-AviTag and the cRaf, as Ras-binding domain (amino acids 50-131, RBD), was GST-tagged. KRAS G12C was preloaded with the GTP analogue Guanosine 5′-[β,γ-imido]triphosphate (GMPPNP). The KRAS G12C was diluted in 25 mM Hepes, pH 7.4, 150 mM NaCl, 5 mM MgCl2, 0.01% TritonX-100 and 10 μM GMPPNP and added at 10 ul/well to compound-spotted plates resulting in a DMSO concentration of 2%. Plates were incubated for 2 hours. A mixture of RBD and the AlphaScreen streptavidin donor and glutathione acceptor beads diluted in 25 mM Hepes, pH 7.4, 150 mM NaCl, 5 mM MgCl2, 0.01% TritonX-100 and 2% DMSO was then added at 10 ul/well and incubated for 60-90 minutes before the samples were read for emission at 570 nm after excitation of the donor beads at 680 nm. All incubations were performed at room temperature. The final top compound concentration was 50 μM with 1:3 titrations for 10-point dose response curves. Final assay conditions were 0.5 nM KRAS G12C, 0.75 nM RBD and 5 ug/ml each of AlphaScreen donor and acceptor beads. IC50s were determined using nonlinear regression fit of [inhibitor] vs. response (4 parameters).
A counter assay was also set up to rule out inhibitors of the AlphaScreen technology itself. Compound plates were incubated for 2 hours as above with buffer only. The AlphaScreen beads were added as above except biotin-AviTag-GST was substituted for the RBD. Samples were read and analyzed as above.

T1 sequence (P01116 1-169 isoform P01116-2 G12C/C51S/C80L/C118S): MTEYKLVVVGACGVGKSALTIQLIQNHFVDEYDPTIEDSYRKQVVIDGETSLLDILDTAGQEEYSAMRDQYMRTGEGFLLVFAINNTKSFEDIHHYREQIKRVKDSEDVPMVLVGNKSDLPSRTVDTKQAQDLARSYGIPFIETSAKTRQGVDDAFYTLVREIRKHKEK

Compound `C[C@@H](/C=C/C(=O)N1CCN(c2nc(OC[C@@]34CCCN3C[C@H](F)C4)nc3c(F)c(-c4cccc5cccc(Cl)c45)ncc23)C[C@@H]1CC#N)N1[C@@H]2CC[C@H]1COC2` [Compound 31, 2-((S)-1-((S,E)-4-((1R,5S)-3-oxa-8-azabicyclo[3.2.1]octan-8-yl)pent-2-enoyl)-4-(7-(8-chloronaphthalen-1-yl)-8-fluoro-2-(((2R,7aS)-2-fluorotetrahydro-1H-pyrrolizin-7a(5H)-yl)methoxy)pyrido[4,3-d]pyrimidin-4-yl)piperazin-2-yl)acetonitrile] registered an IC50 of 10 to 100 nM.
As for `C#Cc1c(F)ccc2cccc(-c3ncc4c(N(C)[C@@H]5CCN(C(=O)/C=C/C(C)N(C)C)C5)nc(OC[C@@]56CCCN5C[C@H](F)C6)nc4c3F)c12` (stereo partly drawn) [Compound 32, (E)-4-(dimethylamino)-1-((R)-3-((7-(8-ethynyl-7-fluoronaphthalen-1-yl)-8-fluoro-2-(((2R,7aS)-2-fluorotetrahydro-1H-pyrrolizin-7a(5H)-yl)methoxy)pyrido[4,3-d]pyrimidin-4-yl)(methyl)amino)pyrrolidin-1-yl)pent-2-en-1-one], the figure is < 10 nM.
`CC(/C=C/C(=O)N1CCN(c2nc(OC[C@@]34CCCN3C[C@H](F)C4)nc3c(F)c(-c4cccc5cccc(Cl)c45)ncc23)C[C@@H]1CC#N)N1CC2CCC(C1)O2` (some centres unmarked) [Compound 33] showed an IC50 of 10 to 100 nM.
As to `CC(/C=C/C(=O)N1CCN(c2nc(OC[C@@]34CCCN3C[C@H](F)C4)nc3c(F)c(-c4cccc5cccc(Cl)c45)ncc23)C[C@@H]1CC#N)N1CC2CC(C1)O2` (some centres unmarked) [Compound 34], the IC50 is 10 to 100 nM.
As to `CC(/C=C/C(=O)N1CC[C@@H](N(C)c2nc(OC[C@@]34CCCN3C[C@H](F)C4)nc3c(F)c(-c4cccc(Cl)c4C4CC4)ncc23)C1)N(C)C` (some centres unmarked) [Compound 35], the IC50 lay within 100 to 500 nM.
Regarding `C[C@H](/C=C/C(=O)N1CCN(c2nc(OC[C@@]34CCCN3C[C@H](F)C4)nc3c(F)c(-c4cccc5cccc(Cl)c45)ncc23)C[C@@H]1CC#N)N1CC2CC(C1)O2` [Compound 36], the IC50 is 10 to 100 nM.
For the compound `C[C@@H](/C=C/C(=O)N1CCN(c2nc(OC[C@@]34CCCN3C[C@H](F)C4)nc3c(F)c(-c4cccc5cccc(Cl)c45)ncc23)C[C@@H]1CC#N)N1CC2CC(C1)O2` [Compound 37], the IC50 lay in the range of 100 to 500 nM.
As for `C[C@H](/C=C/C(=O)N1CCN(c2nc(OC[C@@]34CCCN3C[C@H](F)C4)nc3c(F)c(-c4cccc5cccc(Cl)c45)ncc23)C[C@@H]1CC#N)N1CC[C@H](F)C1` [Compound 38], the IC50 was ≥ 500 nM.
On to `CO[C@@H]1CCN([C@@H](C)/C=C/C(=O)N2CCN(c3nc(OC[C@@]45CCCN4C[C@H](F)C5)nc4c(F)c(-c5cccc6ccc(F)c(Cl)c56)ncc34)C[C@@H]2CC#N)C1` [Compound 39], for which the IC50 was in the range of 100 to 500 nM.
To `CO[C@@H]1CCN([C@H](C)/C=C/C(=O)N2CCN(c3nc(OC[C@@]45CCCN4C[C@H](F)C5)nc4c(F)c(-c5cccc6ccc(F)c(Cl)c56)ncc34)C[C@@H]2CC#N)C1` [Compound 40] belongs 100 to 500 nM; to `C[C@@H](/C=C/C(=O)N1CCN(c2nc(OC[C@@]34CCCN3C[C@H](F)C4)nc3c(F)c(-c4cccc5cccc(Cl)c45)ncc23)C[C@@H]1CC#N)N1C[C@@H]2C[C@H]1CO2` [Compound 41], 10 to 100 nM.
To `C[C@H](/C=C/C(=O)N1CCN(c2nc(OC[C@@]34CCCN3C[C@H](F)C4)nc3c(F)c(-c4cccc5cccc(Cl)c45)ncc23)C[C@@H]1CC#N)N1CC2CCC(C1)O2` [Compound 42] belongs 100 to 500 nM; to `C[C@@H](/C=C/C(=O)N1CCN(c2nc(OC[C@@]34CCCN3C[C@H](F)C4)nc3c(F)c(-c4cccc5cccc(Cl)c45)ncc23)C[C@@H]1CC#N)N1CC2CCC(C1)O2` [Compound 43], 100 to 500 nM; to `C[C@H](/C=C/C(=O)N1CCN(c2nc(OC[C@@]34CCCN3C[C@H](F)C4)nc3c(F)c(-c4cccc(Cl)c4C4CC4)ncc23)C[C@@H]1CC#N)N(C)C` [Compound 44, 2-((S)-4-(7-(3-chloro-2-cyclopropylphenyl)-8-fluoro-2-(((2R,7aS)-2-fluorotetrahydro-1H-pyrrolizin-7a(5H)-yl)methoxy)pyrido[4,3-d]pyrimidin-4-yl)-1-((R,E)-4-(dimethylamino)pent-2-enoyl)piperazin-2-yl)acetonitrile], 10 to 100 nM.
Take `C[C@@H](/C=C/C(=O)N1CCN(c2nc(OC[C@@]34CCCN3C[C@H](F)C4)nc3c(F)c(-c4cccc(Cl)c4C4CC4)ncc23)C[C@@H]1CC#N)N(C)C` [Compound 45, 2-((S)-4-(7-(3-chloro-2-cyclopropylphenyl)-8-fluoro-2-(((2R,7aS)-2-fluorotetrahydro-1H-pyrrolizin-7a(5H)-yl)methoxy)pyrido[4,3-d]pyrimidin-4-yl)-1-((S,E)-4-(dimethylamino)pent-2-enoyl)piperazin-2-yl)acetonitrile]: the concentration for half-maximal inhibition (IC50) lay within 100 to 500 nM.
To `C[C@H](/C=C/C(=O)N1CCN(c2nc(OC[C@@]34CCCN3C[C@H](F)C4)nc3c(F)c(-c4cccc(Cl)c4C(F)(F)F)ncc23)C[C@@H]1CC#N)N(C)C` [Compound 46, 2-((S)-4-(7-(3-chloro-2-(trifluoromethyl)phenyl)-8-fluoro-2-(((2R,7aS)-2-fluorotetrahydro-1H-pyrrolizin-7a(5H)-yl)methoxy)pyrido[4,3-d]pyrimidin-4-yl)-1-((R,E)-4-(dimethylamino)pent-2-enoyl)piperazin-2-yl)acetonitrile] belongs 10 to 100 nM; to `C[C@@H](/C=C/C(=O)N1CCN(c2nc(OC[C@@]34CCCN3C[C@H](F)C4)nc3c(F)c(-c4cccc(Cl)c4C(F)(F)F)ncc23)C[C@@H]1CC#N)N(C)C` [Compound 47, 2-((S)-4-(7-(3-chloro-2-(trifluoromethyl)phenyl)-8-fluoro-2-(((2R,7aS)-2-fluorotetrahydro-1H-pyrrolizin-7a(5H)-yl)methoxy)pyrido[4,3-d]pyrimidin-4-yl)-1-((S,E)-4-(dimethylamino)pent-2-enoyl)piperazin-2-yl)acetonitrile], ≥ 500 nM.
